In patent US9994556B2, “Triazole modified coumarin and biphenyl amide-based HSP90 inhibitors” (THE UNIVERSITY OF KANSAS, priority 2014, dated 2018):
“Also recorded” adds a separate entry of the source. Read-outs that look alike come from different tables or passages of the source.

Key:
[1] = system: LNCaP cells; assay: Sulforhodamine B assay, LNCaP; format: cell-based; details: Homo sapiens, mean ± standard deviation
Summary of the method: (§1)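 Cells treated over a 10-point dose range, fixed with trichloroacetic acid, stained with sulforhodamine B, solubilised in 10 mM Tris, absorbance at 565 nm. Growth inhibition computed against time-zero and untreated wells; curves fitted by sigmoidal non-linear regression.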

[2] = system: SKBr3, MDA-MB-468LN, MCF-7, MDA1986, JMAR, PC3-MM2 and LNCaP cell lines; assay: Antiproliferative activity against the panel of cancer cell lines; format: cell-based; details: for activity against all cell lines tested: panel of seven cancer cell lines
Experimental: a) MTS/PMS Cell Viability Assay (SKBr3 and MCF-7 Cells)
Cells were maintained in a 1:1 mixture of Advanced DMEM/F12 (Gibco) supplemented with non-essential amino acids, L-glutamine (2 mM), streptomycin (500 μg/mL), penicillin (100 units/mL), and 10% FBS. Cells were grown to confluence in a humidified atmosphere (37° C., 5% CO2), seeded (2000/well, 100 μL) in 96-well plates, and allowed to attach overnight. Compound at varying concentrations in DMSO (1% DMSO final concentration) was added, and cells were returned to the incubator for 72 hr. At 72 hr, the number of viable cells was determined using an MTS/PMS cell proliferation kit (Promega) per the manufacturer's instructions. Cells incubated in 1% DMSO were used at 100% proliferation, and values were adjusted accordingly. IC50 values were calculated from separate experiments performed in triplicate using GraphPad Prism. […]
b) Promega CellTiter-Glo (CTG) Luminescent Assay
Antiproliferative activities against MDA-MB-468LN, MDA1986 and JMAR cell lines were performed with 384-well white plates with the Promega CellTiter-Glo (CTG) luminescent assay with 72 hr compound treatment. Data analysis was performed using GraphPad Prism. Selected data were further checked with MTS/PMS cell viability assay with 96-well plates, which correlated well with Promega CellTiter-Glo luminescent assay. […]
c) Sulforhodamine B Assay
The sulforhodamine B assay is used to measure drug-induced cytotoxicity and cell proliferation for large-scale drug-screening applications. Its principle is based on the ability of the protein dye sulforhodamine B to bind electrostatically on pH dependent protein basic amino acid residues of trichloroacetic acid-fixed cells. The aim is to evaluate samples showing selective growth inhibition or cell killing of particular tumor cell lines.
The SRB assay is performed by treating cells using a 10 point dose-response curve. The cells are fixed with trichloroacetic acid solution and stained with sulforhodamine B dye. The stained cells are then solubilized with 10 mM Tris buffer and read for absorbance at 565 nm.

[3] = system: JMAR cell line; assay: Promega CellTiter-Glo (CTG) luminescent assay, JMAR; format: cell-based; details: 72 hr, mean ± standard deviation
Summary of the method: (§2)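 Antiproliferative activity measured after 72 hr compound treatment by CellTiter-Glo luminescence (ATP-based viability). Selected data cross-checked by MTS/PMS viability assay.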

[4] = system: MDA1986 cell line; assay: Promega CellTiter-Glo (CTG) luminescent assay, MDA1986; format: cell-based; details: 72 hr, mean ± standard deviation, read-out: IC50 MDA1986
Summary of the method: as §2

[5] = system: MDA-MB-468LN cell line; assay: Promega CellTiter-Glo (CTG) luminescent assay, MDA-MB-468LN; format: cell-based; details: Homo sapiens, 72 hr, mean ± standard deviation
Summary of the method: as §2

[6] = system: SKBr3 cells; assay: MTS/PMS cell viability assay, SKBr3; format: cell-based; details: Homo sapiens, SK-BR-3
Summary of the method: (§3)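 Cells seeded at 2000/well in Advanced DMEM/F12 with 10% FBS, attached overnight, then exposed to compound (1% DMSO final) for 72 hr at 37° C. Viable cells counted by MTS/PMS, normalised to 1% DMSO as 100%; IC50 from triplicate experiments.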

[7] = system: PC3-MM2 cells; assay: Sulforhodamine B assay, PC3-MM2; format: cell-based; details: Homo sapiens, PC3MM2, mean ± standard deviation
Summary of the method: as §1

[8] = system: MCF-7 cells; assay: MTS/PMS cell viability assay, MCF-7; format: cell-based; details: Homo sapiens, MCF7
Summary of the method: as §3

[9] = system: Hsp90 client proteins Her2, Akt, Raf-1 and CDK6; assay: Western blot analyses of Hsp90 client protein degradation in MCF-7 cell lysates; format: cell-based, human; details: for client proteins Her2, Akt, Raf-1 and CDK6 (Western blot, concentration series) / Hsp90 client proteins Her2, Akt and Raf-1 (Western blot): 24 h; for client proteins Her2, Akt, Raf-1 and CDK6 (Western blot, concentration series): increasing concentrations; for Hsp90 client proteins Her2, Akt and Raf-1 (Western blot): MCF-7 lysates, L = 1/2 and H = 5 times the antiproliferative IC50
Experimental: (§4) MCF-7 cells were cultured as described above and treated with various concentrations of drug, Geldanamycin (GDA or G) in DMSO (1% DMSO final concentration), or vehicle (DMSO) for 24 hr. Cells were harvested in cold PBS and lysed in RIPA lysis buffer containing 1 mM PMSF, 2 mM sodium orthovanadate, and protease inhibitors on ice for 1 hr. Lysates were clarified at 14000 g for 10 min at 4° C. Protein concentrations were determined using the Pierce BCA protein assay kit per the manufacturer's instructions. Equal amounts of protein (15 μg) were electrophoresed under reducing conditions, transferred to a PVDF membrane, and immunoblotted with the corresponding specific antibodies. Membranes were incubated with an appropriate horseradish peroxidase-labeled secondary antibody, developed with a chemiluminescent substrate, and visualized.

[10] = system: heat shock proteins Hsp27, Hsp70 and Hsp90; assay: Western blot analyses of heat shock proteins in MCF-7 cell lysates; format: cell-based, human; details: MCF-7 cells, 24 h, increasing concentrations of 5f
Experimental: as §4

[11] = system: Hsp90 C-terminus; assay: Proteolytic fingerprinting assay of Hsp90 from rabbit reticulocyte lysate; format: binding; details: band not detected for vehicle control
Experimental: e) Proteolytic Fingerprinting Assay
Rabbit reticulocyte (Green Hectares) incubated under conditions of protein synthesis at 30° C. in the presence of compound or vehicle (1% DMSO) for 10 minutes. Each reaction mixture contained 66.6% rabbit reticulocyte and 33.3% ATP regenerating system (10 mM creatine phosphate and 20 μg mL^−1 creatine phosphokinase) and a final concentration of 75 mM KCl. Each reaction mixture contained the indicated amount of compound. After incubating, the samples were immediately placed on ice and the indicated amount of TPCK-treated trypsin (Worthington) was added to each sample. The samples digested on ice for an additional 6 minutes and the reactions were quenched by the addition of Laemmli sample buffer followed by immediate boiling. Equal amounts of each sample were electrophoresed under reducing conditions (12% acrylamide gels), transferred to PVDF, and immunoblotted with an antibody specific to the Hsp90 C-terminus. Membranes were incubated with an appropriate horseradish peroxidase-labeled secondary antibody, developed with a chemiluminescent substrate, and visualized.

[12] = Table 1 coumarin-based triazoles
[13] = Table 1 coumarin-based triazoles, 72 hr, mean ± standard deviation, at least two experiments in triplicate, read-out: IC50 SKBr3
[14] = Table 1 coumarin-based triazoles, 72 hr, mean ± standard deviation, read-out: IC50 MCF-7
[15] = Table 2 biphenyl triazole analogues
[16] = Table 2 biphenyl triazole analogues, 72 hr, mean ± standard deviation, read-out: IC50 SKBr3
[17] = Table 2 biphenyl triazole analogues, 72 hr, mean ± standard deviation, read-out: IC50 MCF-7
[18] = read-out: IC50 against MCF-7 cell line

Row | SMILES | IC50 [1, 12] [nM] | activity against all cell lines tested [2] | IC50 [3, 12] [nM] | IC50 [4, 12] [nM] | IC50 [5, 12] [nM] | IC50 [6, 13] [nM] | IC50 [7, 12] [nM] | IC50 [8, 14] [nM] | IC50 [1, 15] [nM] | IC50 [3, 15] [nM] | IC50 [4, 15] [nM] | IC50 [5, 15] [nM] | IC50 [6, 16] [nM] | IC50 [7, 15] [nM] | IC50 [8, 17] [nM] | IC50 [8, 18] [nM] | client proteins Her2, Akt, Raf-1 and CDK6 (Western blot, concentration series) ([9]; MCF-7 cells) | Hsp90 client proteins Her2, Akt and Raf-1 (Western blot) [9] | further results
1 | Cc1c(OC2CCN(C)CC2)ccc2cc(NC(=O)c3cn(-c4ccccc4)nn3)c(=O)oc12 [4a, N-(8-methyl-7-((1-methylpiperidin-4-yl)oxy)-2-oxo-2H-chromen-3-yl)-1-phenyl-1H-1,2,3-triazole-4-carboxamide] | 4720 ± 710 | low micromolar | 2300 ± 400 | 1500 ± 3400 | 1100 ± 210 | 940 ± 20 | 2690 | 1330 ± 130 |  |  |  |  |  |  |  |  |  |  | 
2 | Cc1c(OC2CCN(C)CC2)ccc2cc(NC(=O)c3cn(Cc4ccccc4)nn3)c(=O)oc12 [4b, 1-Benzyl-N-(8-methyl-7-((1-methylpiperidin-4-yl)oxy)-2-oxo-2H-chromen-3-yl)-1H-1,2,3-triazole-4-carboxamide] | 15500 ± 8750 | low micromolar | 2100 ± 230 | 1600 ± 210 | 2400 | 990 ± 80 | 9800 ± 13500 | 1080 |  |  |  |  |  |  |  |  |  |  | 
3 | CN1CCC(Oc2ccc(-c3ccc(NC(=O)c4cn(Cc5ccccc5)nn4)cc3)cc2)CC1 [5b, 1-Benzyl-N-(4′-((1-methylpiperidin-4-yl)oxy)-[1,1′-biphenyl]-4-yl)-1H-1,2,3-triazole-4-carboxamide] |  |  |  |  |  |  |  |  | 650 ± 540 | 500 ± 60 | 280 ± 100 | 340 ± 70 | 170 ± 20 | 550 ± 460 | 500 ± 20 | 500 | degraded in a concentration-dependent manner | decreased; also recorded: Clear degradation | times more potent than 5a against all the cell lines evaluated ([2]; 5b compared with 5a): 2.5-8 times; IC50 ([6]; read-out: IC50 against SKBr3 cell line): 170 nM
4 | Cc1ccc(Cn2cc(C(=O)Nc3ccc(-c4ccc(OC5CCN(C)CC5)cc4)cc3)nn2)cc1 [5f, 1-(4-Methylbenzyl)-N-(4′-((1-methylpiperidin-4-yl)oxy)-[1,1′-biphenyl]-4-yl)-1H-1,2,3-triazole-4-carboxamide] |  |  |  |  |  |  |  |  | 200 ± 40 | 420 ± 70 | 360 ± 50 | 410 ± 260 | 170 ± 30 | 360 ± 40 | 120 ± 10 | 120 | degraded in a concentration-dependent manner | decreased; also recorded: Clear degradation | heat shock proteins Hsp27, Hsp70, or Hsp90 levels [10]: No increase; concentration able to deplete Hsp90 client proteins as well as Geldanamycin at 500 nM ([9]; MCF-7 cells, Western blot): 1 µM; 50 kDa Hsp90 fragment on trypsin proteolysis (C-terminal Hsp90 antibody) ([11]; 1 mM compound): 50 kDa band was detected
5 | CO[C@@H]1[C@@H](OC(N)=O)[C@@H](O)[C@H](Oc2ccc3c(O)c(NC(=O)c4ccc(O)c(CC=C(C)C)c4)c(=O)oc3c2C)OC1(C)C [novobiocin, reference compound] |  |  |  |  |  |  |  |  |  |  |  |  |  |  |  |  |  |  | 50 kDa Hsp90 fragment on trypsin proteolysis (C-terminal Hsp90 antibody) ([11]; 5 mM compound): 50 kDa band was detected
